Measurements as given in patent US8962600B2, “Neuroprotective compounds and their use” (The Medical College of Wisconsin, Inc., priority 2009, dated 2015).

Key:
TNF-α = assay: LPS-induced TNF-α release in primary microglia, LUMINEX immunoassay; assay type: cell-based, mouse; details: diapocynin 10 μM, LPS 24 hr
Description: Primary microglia were obtained from 1-2 day old C57/b16 mouse pups. Upon collection, whole brains were kept in ice-cold DMEM-F12 medium containing 10% FBS, 1× sodium pyruvate, 1× NEAAs, 100 units pen/strep, and Q. After collection, the brains were placed in 0.25% trypsin-EDTA and incubated at 37° C., with gentle shaking every 5-10 min. After 30 min, the trypsin was removed, and the brains are washed in warmed medium twice. After washing, medium was added to the brains, and the brains were homogenized using gentle pipetting, starting with a 25 ml pipette and moving to smaller pipette tips as the brains were broken up. When the brains were sufficiently homogenized to a single-cell suspension, they were filtered with a 70 μm nylon filter, which allowed microglia and astrocytes to be collected. The resultant cell suspension was plated in T-75 flasks and allowed to grow for 12-14 days at 37° C., 5% CO2. […]
Cytokine levels of BV2 and microglial cells treated with diapocynin were determined by LUMINEX® multiplex immunoassay. […]
Cytokine standards and controls were adjusted to 40 μl volume and the LUMINEX® Samples were run on a LUMINEX® 200 Total System and analyzed with Multiplex Analysis—LUMINEX® Software (Invitrogen, Carlsbad, Calif.).

mouse primary microglia = assay: LPS-induced iNOS activation (nitrite, Griess reagent) in primary microglia; assay type: cell-based; details: diapocynin 10 μM, 30 min pretreatment, LPS 24 hr
Description: Primary microglia were obtained from 1-2 day old C57/b16 mouse pups. Upon collection, whole brains were kept in ice-cold DMEM-F12 medium containing 10% FBS, 1× sodium pyruvate, 1× NEAAs, 100 units pen/strep, and Q. After collection, the brains were placed in 0.25% trypsin-EDTA and incubated at 37° C., with gentle shaking every 5-10 min. After 30 min, the trypsin was removed, and the brains are washed in warmed medium twice. After washing, medium was added to the brains, and the brains were homogenized using gentle pipetting, starting with a 25 ml pipette and moving to smaller pipette tips as the brains were broken up. When the brains were sufficiently homogenized to a single-cell suspension, they were filtered with a 70 μm nylon filter, which allowed microglia and astrocytes to be collected. The resultant cell suspension was plated in T-75 flasks and allowed to grow for 12-14 days at 37° C., 5% CO2. Microglia were collected using an Easy Sep Magnet (Stemcell Technologies, Vancouver, BC, Canada) (68-69) and plated on poly-D-lysine-coated plates and allowed to attach for 2-4 days before treatment.
Inducible nitric oxide synthase (iNOS or NOS2) activation was assessed by measuring nitrite levels using Griess reagent in a 96-well format (70-72). […] The plate was shaken on a plate shaker for 10 min before being read in a plate reader at 540 nm.

gp91phox = gp91phox expression in substantia nigra, Western blot and DAB immunostaining; assay type: in vivo, C57BL/6 mice
Description: For checking inflammatory and oxidative stress markers, mice were gavaged diapocynin (300 mg/kg dose) 1 day before MPTP treatment (pre-treatment) and continued for another 4 days of co-treatment with MPTP. In the sub-acute MPTP regimen, MPTP (25 mg/kg) was injected intraperitoneally once per day from day 2 to day 7. Control mice received saline at the same dosage.
Four days after MPTP treatment, mice were perfused with 4% paraformaldehyde (PFA) and post-fixed with PFA and 30% sucrose, respectively. Next, fixed brains were cut into 30 μm sections and kept in 30% sucrose-ethylene glycol solutions at −20° C. On the day of staining, sections were rinsed with phosphate-buffered saline (PBS) and incubated with different primary antibodies, including anti-IBA-1 (DAKO, Carpinteria, Calif.), anti-GFAP (Millipore, Billerica, Mass.), anti-iNOS (Santa Cruz Biotechnology, Santa Cruz, Calif.), anti-3NT (Millipore), anti-4HNE (R&D Systems, Minneapolis, Minn.) and anti-gp91phox (Santa Cruz Biotechnology) for overnight at 4° C. Appropriate secondary antibodies (Alexa Fluor 488, 594, or 555 from Invitrogen, Carlsbad, Calif.) were used followed by incubation with 10 μg/ml Hoechst 33342 for 5 min at room temperature to stain the nucleus. Sections were viewed under a Nikon inverted fluorescence microscope (model TE-2000U; Nikon, Tokyo, Japan). […]

## COc1cc(C(C)=O)cc(-c2cc(C(C)=O)cc(OC)c2O)c1O [diapocynin]
TNF-α
  blocking LPS-induced release of TNF-α: very effective
Mouse primary microglia
  attenuating LPS-induced iNOS activation, compared with apocynin 100 μM: just as effective
gp91phox; diapocynin 300 mg/kg gavage, MPTP 25 mg/kg i.p., Western blot and DAB immunostaining
  MPTP-induced expression of gp91phox in substantia nigra: attenuated
gp91phox; double-labeling, mice treated with MPTP and diapocynin 300 mg/kg
  colocalization of gp91phox with IBA-1 positive cells: no colocalization
